This is an account of results in patent US12037339B2, “Substituted imidazoles as GLP-1 receptor agonists” (Eccogene Inc., priority 2020, dated 2024).

Data set [1] is described as follows: Pharmacokinetics after oral gavage in fasted SD rats. It is filed as in vivo. The following applies: rat, 5 mg/kg, plasma. The protocol:
Compounds of the present application were formulated in 10% DMSO/10%/Cremophor EL/15% PEG400/65% 100 mM Glycine-NaOH pH 10, and administered via oral gavage (P0) at the dosages of 5 or 10 mg per kilogram body weight in fasted SD rats. Plasma samples were collected at 0.25, 0.5, 1, 2, 4, 6, 8, and 24 hours post dosing. Compound concentration was determined by LC-MS and pharmacokinetics parameters were calculated by WinNonlin 8.2 using Non-Compartmental Analysis model.

The target of data set [2] is (Homo sapiens, UniProt P43220). Description: h-GLP-1 activity assay (cAMP HTRF, HEK293 cells with stable expression of human GLP-1). In kind it is cell-based. The following applies: relative EC50, 10 nM human GLP-1 set as 100% response, 30 min at 37° C. Put shortly: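 cAMP accumulation (HTRF, 665/615 nm, interpolated from standard curve) after 30 min, 37 °C compound treatment of stable human GLP-1 HEK293 cells with 0.5 mM IBMX. EC50 by 4-parameter regression, reported relative to 10 nM GLP-1 (7-37) as full response.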

Another data set addresses T1, human OATP1B1 (Homo sapiens, UniProt Q9Y6L6).
T1 sequence (Q9Y6L6 1-691): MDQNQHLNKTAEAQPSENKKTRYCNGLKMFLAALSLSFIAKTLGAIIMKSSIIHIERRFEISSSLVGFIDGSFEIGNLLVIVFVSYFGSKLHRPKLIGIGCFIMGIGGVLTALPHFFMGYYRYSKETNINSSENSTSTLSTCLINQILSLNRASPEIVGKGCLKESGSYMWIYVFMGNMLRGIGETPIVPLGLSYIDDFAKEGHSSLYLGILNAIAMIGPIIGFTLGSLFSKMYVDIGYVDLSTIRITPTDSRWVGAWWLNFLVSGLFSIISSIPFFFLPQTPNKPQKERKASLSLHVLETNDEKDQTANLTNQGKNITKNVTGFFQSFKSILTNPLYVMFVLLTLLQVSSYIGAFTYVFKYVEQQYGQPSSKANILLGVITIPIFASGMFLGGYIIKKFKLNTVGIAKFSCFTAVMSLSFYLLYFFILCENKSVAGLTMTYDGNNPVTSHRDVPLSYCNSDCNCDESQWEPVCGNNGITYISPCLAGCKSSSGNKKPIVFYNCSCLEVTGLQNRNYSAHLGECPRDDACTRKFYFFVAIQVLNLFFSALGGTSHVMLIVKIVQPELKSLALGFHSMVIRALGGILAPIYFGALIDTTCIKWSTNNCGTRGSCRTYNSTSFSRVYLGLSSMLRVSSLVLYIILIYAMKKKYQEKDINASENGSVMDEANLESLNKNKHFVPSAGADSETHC
Description: OATP1B1 inhibition assay (HEK293 cells over-expressing human OATP1B1, substrate estradiol 17-β-D-glucuronide). It is filed as cell-based. The following applies: 30 min pre-incubation, 10 min coincubation with estradiol 17-β-D-glucuronide. The protocol: HEK293 cells over-expressing human OATP1B1 were used for determining the inhibitory effect of compounds of the application on OATP1B1-mediated transportation. Cells were seeded at a density of 400,000 cells per well in 24-well plates. When reaching confluence of 80˜90%, cells were washed with pre-warmed assay buffer and then pre-incubated with serially diluted test compounds or negative control (NC) or positive inhibitor (PC, Rifampicin) for 30 min, followed by coincubation with the same test compound and OATP1B1 substrate estradiol 17-β-D-glucuronide for 10 min. Cells were washed with pre-cooled buffer, and lysed by freeze-thaw cycles. After extraction by mixture of […] of methanol, the substrate concentration was determined by LC-MS/MS, and protein concentration was determined by BCA method. The substrate transport velocity U is calculated as U=Clysate/(P*T), where Clysate is substrate concentration in lysate, P is protein concentration in lysate, and T is incubation time. Relative transport activity Y is calculated as Y=UTA/UNC. The IC50 value of the tested compounds was calculated by fitting Y to compound concentration using a 4-parameter non-linear regression routine in Prism.

Sequence of (Homo sapiens, UniProt P43220) (P43220 24-463): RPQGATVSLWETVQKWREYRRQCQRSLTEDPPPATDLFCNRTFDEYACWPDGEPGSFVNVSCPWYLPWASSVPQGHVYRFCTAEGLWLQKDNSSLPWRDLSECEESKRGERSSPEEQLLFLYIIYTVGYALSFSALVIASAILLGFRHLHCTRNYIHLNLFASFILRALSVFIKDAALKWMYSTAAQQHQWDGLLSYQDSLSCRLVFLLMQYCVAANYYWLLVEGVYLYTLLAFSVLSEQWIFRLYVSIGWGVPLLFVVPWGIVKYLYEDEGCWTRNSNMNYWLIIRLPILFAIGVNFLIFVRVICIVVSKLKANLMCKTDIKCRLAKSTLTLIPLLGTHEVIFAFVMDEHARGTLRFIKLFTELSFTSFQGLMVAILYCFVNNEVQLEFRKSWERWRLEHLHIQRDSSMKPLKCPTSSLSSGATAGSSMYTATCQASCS

In data set [1], `C[C@H]1c2c(nn(-c3ccc(F)c(C4CC4)c3)c2-n2ccn(-c3ccc4c(cnn4C)c3F)c2=O)CCN1C(=O)c1cn2nc([C@@H]3CCOC(C)(C)C3)ccc2c1C1(c2noc(=O)[nH]2)CC1` (single isomer, unassigned) [Compound 90] yielded an exposure (AUC) of 3340 ng·h/mL, a Cmax of 1370 ng/mL and a bioavailability of 59%. Moreover, in data set [2], the EC50 is under 20 nM. For the same molecule, the IC50 at human OATP1B1 is over 1000 nM.

In data set [1], `C[C@H]1c2c(nn(-c3ccc(F)c(C4CC4)c3)c2-n2ccn(-c3ccc4c(cnn4C)c3F)c2=O)CCN1C(=O)c1cc2cc([C@@H]3CCOC(C)(C)C3)ccn2c1C1(c2noc(=O)[nH]2)CC1` (single isomer, unassigned) [Compound 73] returned an AUC of 10200 ng·h/mL, a Cmax of 1700 ng/mL and a bioavailability of 90%. Moreover, in data set [2], the EC50 was under 20 nM. Besides, the IC50 on human OATP1B1 is over 1000 nM.

`Cc1cc(-n2nc3c(c2-n2ccn(-c4ccc5c(cnn5C)c4F)c2=O)[C@H](C)N(C(=O)c2cc4cc([C@@H]5CCOC(C)(C)C5)ccn4c2C2(c4noc(=O)[nH]4)CC2)CC3)cc(C)c1F` (single isomer, unassigned) [Compound 10] displayed an EC50 in data set [2] of under 20 nM. Also, the 50% inhibitory concentration (IC50) on human OATP1B1 was over 1000 nM.

For `C[C@H]1c2c(nn(-c3ccc(F)c(C4CC4)c3)c2-n2ccn(-c3ccc4c(cnn4C)c3F)c2=O)CCN1C(=O)c1cn2cc([C@H]3CCOC(C)(C)C3)cc(F)c2c1C1(c2noc(=O)[nH]2)CC1` (single isomer, unassigned) [Compound 91], in data set [1], the AUC stood at 2660 ng·h/mL, the peak level (Cmax) was 738 ng/mL and the bioavailability amounted to 22%. In data set [2], this molecule gave a concentration giving a half-maximal response (EC50) of under 20 nM. Besides, on human OATP1B1, the IC50 is over 1000 nM.

In turn, `Cn1ncc2c(F)c(-n3ccn(-c4c(-c5ccc(F)cc5)nn5c4CN(C(=O)c4cc6cc(C7CCOCC7)ccc6n4-c4ccccc4C(=O)O)CC5)c3=O)ccc21` [Compound 55, 2-(2-(3-(3-(4-fluoro-1-methyl-1H-indazol-5-yl)-2-oxo-2,3-dihydro-1H-imidazol-1-yl)-2-(4-fluorophenyl)-4,5,6,7-tetrahydropyrazolo[1,5-a]pyrazine-5-carbonyl)-5-(tetrahydro-2H-pyran-4-yl)-1H-indol-1-yl)benzoic acid] gave a half-maximal effective concentration (EC50) in data set [2] of over 100 nM.

In turn, `C[C@@H]1c2c(-n3ccn(-c4ccc5c(cnn5C)c4F)c3=O)c(-c3ccc(F)c(C(F)(F)F)c3)nn2CCN1C(=O)c1cc2cc([C@@H]3CCOC(C)(C)C3)ccc2n1C1(c2noc(=O)[nH]2)CC1` (single isomer, unassigned) [Compound 66] had a 50% effective concentration (EC50) in data set [2] of over 100 nM.

Take `Cc1cc(-n2nc3c(c2-n2ccn(-c4ccc5c(cnn5C)c4F)c2=O)[C@H](C)N(C(=O)c2cn4cc([C@@H]5CCOC(C)(C)C5)ccc4c2C2(c4noc(=O)[nH]4)CC2)CC3)cc(C)c1F` (single isomer, unassigned) [Compound 19]: in data set [1], the AUC was 3000 ng·h/mL, the Cmax is 572 ng/mL and the bioavailability worked out at 26%. In data set [2], this molecule showed an EC50 of under 20 nM. On human OATP1B1, the IC50 is over 1000 nM.

Molecule `C[C@H]1c2c(nn(-c3ccc(F)c(C4CC4)c3)c2-n2ccn(-c3ccc4c(cnn4C)c3F)c2=O)CCN1C(=O)c1c(Cl)c2cc([C@@H]3CCOC(C)(C)C3)ccn2c1C1(c2noc(=O)[nH]2)CC1` (single isomer, unassigned) [Compound 88] showed an EC50 in data set [2] of over 100 nM.

`Cc1cc(-n2nc3c(c2-n2ccn(-c4ccc5c(cnn5C)c4F)c2=O)[C@H](C)N(C(=O)c2cc4cc([C@@H]5CCOC(C)(C)C5)ccc4n2Cc2cnc(O)s2)CC3)cc(C)c1F` (single isomer, unassigned) [Compound 46]: in data set [2], the concentration for a half-maximal effect (EC50) was 20 to 100 nM.

For the molecule `C[C@H]1c2c(nn(-c3ccc(F)c(C(F)(F)F)c3)c2-n2ccn(-c3ccc4c(cnn4C)c3F)c2=O)CCN1C(=O)c1cn2cc([C@@H]3CCOC(C)(C)C3)ccc2c1C1(c2noc(=O)[nH]2)CC1` (single isomer, unassigned) [Compound 71], in data set [2], the concentration giving a half-maximal response (EC50) is under 20 nM.

As to `Cc1cc(-n2nc3c(c2-n2ccn(-c4ccc5c(cnn5C)c4F)c2=O)[C@H](C)N(C(=O)c2nn4cc([C@@H]5CCOC(C)(C)C5)ccc4c2C2(c4noc(=O)[nH]4)CC2)CC3)cc(C)c1F` (single isomer, unassigned) [Compound 83], the concentration giving a half-maximal response (EC50) in data set [2] was under 20 nM.

Molecule `Cc1cc(-n2nc3c(c2-n2ccn(-c4ccc5c(cnn5C)c4F)c2=O)[C@H](C)N(C(=O)c2cc4cc([C@H]5CCOC(C)(C)C5)ccc4n2Cc2cnc(O)s2)CC3)cc(C)c1F` (single isomer, unassigned) [Compound 45] came in with a 50% effective concentration (EC50) in data set [2] of over 100 nM.

As for `Cc1cc(-n2nc3c(c2-n2ccn(-c4ccc5c(cnn5C)c4F)c2=O)[C@H](C)N(C(=O)c2nn4cc([C@H]5CCOC(C)(C)C5)ccc4c2C2(c4noc(=O)[nH]4)CC2)CC3)cc(C)c1F` (single isomer, unassigned) [Compound 82], the EC50 in data set [2] fell in the range of 20 to 100 nM.

In the case of `C[C@H]1c2c(nn(-c3ccc(F)c(C(F)(F)F)c3)c2-n2ccn(-c3ccc4c(cnn4C)c3F)c2=O)CCN1C(=O)c1cc2cc([C@@H]3CCOC(C)(C)C3)ccn2c1C1(c2noc(=O)[nH]2)CC1` (single isomer, unassigned) [Compound 74], in data set [2], the 50% effective concentration (EC50) was under 20 nM.

For the molecule `COCc1ccc(-n2ccn(-c3c4c(nn3-c3cc(C)c(F)c(C)c3)CCN(C(=O)c3cc5cc(C6CCOCC6)ccc5n3-c3ccccc3C(=O)O)[C@H]4C)c2=O)cc1` [Compound 57, (S)-2-(2-(2-(4-fluoro-3,5-dimethylphenyl)-3-(3-(4-(methoxymethyl)phenyl)-2-oxo-2,3-dihydro-1H-imidazol-1-yl)-4-methyl-4,5,6,7-tetrahydro-2H-pyrazolo[4,3-c]pyridine-5-carbonyl)-5-(tetrahydro-2H-pyran-4-yl)-1H-indol-1-yl)benzoic acid], the concentration for a half-maximal effect (EC50) in data set [2] is over 100 nM.

In data set [2], `Cc1cc(-n2nc3c(c2-n2ccn(-c4ccc5c(cnn5C)c4F)c2=O)[C@H](C)N(C(=O)c2cn4cc([C@@H]5CCOC(C)(C)C5)ccc4c2[C@]2(c4noc(=O)[nH]4)C[C@@H]2C)CC3)cc(C)c1F` (single isomer, unassigned) [Compound 6] returned an EC50 of 20 to 100 nM.

`Cc1cc(-n2nc3c(c2-n2ccn(-c4ccc5c(cnn5C)c4F)c2=O)[C@H](C)N(C(=O)c2cn4cc([C@H]5CCOC6(CC6)C5)ccc4c2C2(c4noc(=O)[nH]4)CC2)CC3)cc(C)c1F` (single isomer, unassigned) [Compound 86] displayed an EC50 in data set [2] of under 20 nM.

The molecule `Cc1cc(-n2nc3c(c2-n2ccn(-c4ccc5c(cnn5C)c4F)c2=O)[C@H](C)N(C(=O)c2cn4cc([C@@H]5CCOC6(CC6)C5)ccc4c2C2(c4noc(=O)[nH]4)CC2)CC3)cc(C)c1F` (single isomer, unassigned) [Compound 87] registered a concentration giving a half-maximal response (EC50) in data set [2] of under 20 nM.

`COCC12CCC(n3ccn(-c4c(-c5ccc(F)cc5)nn5c4[C@H](C)N(C(=O)c4cc6cc([C@@H]7CCOC(C)(C)C7)ccc6n4C4(c6noc(=O)[nH]6)CC4)CC5)c3=O)(CC1)CC2` (single isomer, unassigned) [Compound 29] had an EC50 in data set [2] of 20 to 100 nM.

With `Cc1cc(-n2nc3c(c2-n2ccn(-c4ccn5c(C)nnc5c4)c2=O)[C@H](C)N(C(=O)c2cn4cc([C@@H]5CCOC(C)(C)C5)ccc4c2C2(c4noc(=O)[nH]4)CC2)CC3)cc(C)c1F` (single isomer, unassigned) [Compound 79], the half-maximal effective concentration (EC50) in data set [2] is under 20 nM.

In data set [1], `C[C@H]1c2c(nn(-c3ccc(F)c(C4CC4)c3)c2-n2ccn(-c3ccc4c(cnn4C)c3F)c2=O)CCN1C(=O)c1cn2cc([C@@H]3CCOC(C)(C)C3)ccc2c1C1(c2noc(=O)[nH]2)CC1` (single isomer, unassigned) [Compound 76] came in with an exposure (AUC) of 5320 ng·h/mL, a Cmax of 962 ng/mL and a bioavailability of 30%. The molecule further gave a concentration giving a half-maximal response (EC50) in data set [2] of under 20 nM. On human OATP1B1, the 50% inhibitory concentration (IC50) is over 1000 nM.
